Laboratory results from paper PMC12352625, “Double crossed? Structural and computational studies of an unusually crosslinked haem in Methylococcus capsulatus cytochrome P460” (Chemical Science, 2025).

Biological target: T1, McP460 (cytochrome P460 from Methylococcus capsulatus (Bath)) (Methylococcus capsulatus, UniProt G1UBD9)
T1 construct: gene MCA0524; recombinant from E. coli; covalent c-type P460 haem (Cys140, Cys143, His144, Lys78)
T1 sequence (G1UBD9 18-161): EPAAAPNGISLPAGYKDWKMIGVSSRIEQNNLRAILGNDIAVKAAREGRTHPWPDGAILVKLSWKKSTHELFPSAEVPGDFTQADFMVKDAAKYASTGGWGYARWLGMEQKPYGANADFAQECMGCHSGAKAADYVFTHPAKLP
Assay: DCPIP reduction assay; N2O by GC-MS; nitrite by Griess assay
Assay type: biochemical
Conditions: 5 uM enzyme, 6 uM PMS, 2 mM [Ru(NH3)6]Cl3, 0-1000 uM hydroxylamine for product assays; anaerobic or aerobic

NO [hydroxylamine]
DCPIP reduction assay; N2O by GC-MS; nitrite by Griess assay: assays were carried out to assess the protein's ability to oxidise hydroxylamine, and product formation
